The supplement of paper PMC10307832

Legend:
Test in all cases: relative viability (nuclei count vs DMSO), 5 days (fraction); higher = more cells survive
[1] = compound: C1CC(C2=C(C1)C3=C(N2)C=CC(=C3)Cl)C(=O)N [Selisistat] + N=C(N)NC(=N)NCCc1ccccc1 [Phenformin] (partner 250 µM)
How it was run: (§1)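 Lung cancer cell lines, seeded in 1536-well plates, were treated the following day by pin tool with a single drug or with five library-drug doses (not always all listed) in √10 steps on top of a fixed anchor-drug dose. Cells were fixed and nuclei stained in one step after 5 days, and nuclei were counted. Relative viability is the nuclei count for treated wells divided by that for vehicle wells, reported as medians of duplicate plates.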

[2] = compound: C1CC(C2=C(C1)C3=C(N2)C=CC(=C3)Cl)C(=O)N [Selisistat] + CC(=O)Nc1cccc(-n2c(=O)n(C3CC3)c(=O)c3c(Nc4ccc(I)cc4F)n(C)c(=O)c(C)c32)c1 [Trametinib] (partner 0.02 µM)
How it was run: as §1

[3] = compound: c1ccc2c(CCNc3ccc(Nc4ccncc4)cc3)c[nH]c2c1 [Serdemetan] + CC1(C)CCC(c2ccc(Cl)cc2)=C(CN2CCN(c3ccc(C(=O)NS(=O)(=O)c4ccc(N[C@H](CCN5CCOCC5)CSc5ccccc5)c(S(=O)(=O)C(F)(F)F)c4)cc3)CC2)C1 [Navitoclax] (partner 0.5 µM)
How it was run: as §1

[4] = compound: C1CC(C2=C(C1)C3=C(N2)C=CC(=C3)Cl)C(=O)N [Selisistat] + Nc1ncn([C@H]2C[C@H](O)[C@@H](CO)O2)c(=O)n1 [Decitabine] (partner 2 µM)
How it was run: as §1

Cell Line | relative viability ([1]; first compound 0.4 µM) | relative viability ([1]; first compound 1.265 µM) | relative viability ([1]; first compound 4 µM) | relative viability ([1]; first compound 12.65 µM) | relative viability ([1]; first compound 40 µM) | relative viability ([2]; first compound 0.4 µM) | relative viability ([2]; first compound 1.265 µM) | relative viability ([2]; first compound 4 µM) | relative viability ([2]; first compound 12.65 µM) | relative viability ([2]; first compound 40 µM) | relative viability ([3]; first compound 0.04 µM) | relative viability ([3]; first compound 0.1265 µM) | relative viability ([3]; first compound 0.4 µM) | relative viability ([3]; first compound 4 µM) | relative viability ([4]; first compound 0.4 µM) | relative viability ([4]; first compound 1.265 µM) | relative viability ([4]; first compound 4 µM) | relative viability ([4]; first compound 12.65 µM) | relative viability ([4]; first compound 40 µM) | relative viability ([3]; first compound 1.265 µM)
CAL-12T | 0.586 | 0.565 | 0.406 | 0.516 | 0.537 | 0.375 | 0.365 | 0.35 | 0.311 | 0.341 | 1.3 | 1.42 | 1.26 | 1.19 |  |  |  |  |  | 
RERF-LC-KJ | 0.5 | 0.412 | 0.399 | 0.338 | 0.362 | 0.812 | 0.792 | 0.816 | 0.771 | 0.736 | 1.15 | 0.842 | 1.06 | 0.983 | 0.806 | 0.601 | 0.593 | 0.61 | 0.614 | 0.805
NCI-H1650 | 0.375 | 0.448 | 0.336 | 0.361 | 0.465 | 0.564 | 0.572 | 0.531 | 0.577 | 0.465 | 1.02 | 1.19 | 1.19 | 0.722 | 0.545 | 0.422 | 0.382 | 0.481 | 0.438 | 1.18
BEN | 0.246 | 0.286 | 0.256 | 0.239 | 0.275 | 1.05 | 0.882 | 0.896 | 1.03 | 0.957 | 0.0749 | 0.0626 | 0.0845 | 0.0676 | 0.923 | 0.556 | 0.479 | 0.707 | 0.691 | 0.0724
EMC-BAC-2 | 0.514 | 0.502 | 0.567 | 0.517 | 0.493 | 0.907 | 0.927 | 0.96 | 0.885 | 0.816 | 1.14 | 1.14 | 1.1 | 0.745 | 1.11 | 0.897 | 0.931 | 0.933 | 0.683 | 1.09
LU99A | 0.897 | 0.956 | 0.956 | 0.806 | 0.832 | 0.596 | 0.561 | 0.552 | 0.52 | 0.575 | 0.803 | 0.842 | 0.712 | 0.26 | 0.947 | 0.928 | 0.847 | 0.792 | 0.907 | 0.251
ABC-1 | 0.221 | 0.213 | 0.265 | 0.265 | 0.263 |  |  |  |  |  |  |  |  |  | 0.881 | 1.02 |  | 0.86 | 1.08 | 
